The assay concerns T acute lymphoblastic leukemia (T-ALL) cells.

Protocol: Mononuclear human leukemia cells were prepared using Ficoll gradient centrifugation and cryopreserved in liquid nitrogen. The frozen cells were thawed quickly and washed with PBS to remove the cryopreservation reagent. NOD/SCID mice (Institute of Cellular and Organismic Biology, Academia Sinica) were preconditioned with 200 centigray of total body irradiation at 6-8 weeks of age. The leukemia cells were then transplanted to the preconditioned NOD/SCID mice via tail vein. The resulting leukemia blast cells, i.e., T acute lymphoblastic leukemia (T-ALL) cells and acute myelogenous leukemia (AML) cells, were recovered from spleen and used in experiments as described below.
Mice were monitored for leukemia cell engraftment and dissemination by the appearance of human CD45^+ cells in mouse peripheral blood, which were sampled weekly after the 3rd week of cell transplantation. Peripheral blood samples were taken from the tail vein and red blood cells were lysed in ammonium chloride and resuspensed in Phosphate buffered saline (PBS) plus 2% Fetal Bovine Serum (FBS) before cell staining. […] After immunostaining, cells were washed, suspended in PBS plus 2% FBS, and analyzed using FACS Calibur (BD Biosciences). […]

In turn, `CC[C@]1(O)C[C@H]2CN(CCc3c([nH]c4ccccc34)[C@@](C(=O)OC)(c3cc4c(cc3OC)N(C=O)[C@H]3[C@@](O)(C(=O)OC)[C@H](OC(C)=O)[C@]5(CC)C=CCN6CC[C@]43[C@@H]65)C2)C1` [vincristine] yielded an average survival time (vincristine (0.5 mg/kg ip) alone, days 14, 21, 28) of 73.6 ± 7.1 days. Under “vincristine (0.5 mg/kg) alone”, the “time until which CD45+ cells in the peripheral blood were not detected” value was found to be 8 weeks.

These data come from patent US9375406B2, “Substituted pyrimidines for mobilizing cells expressing a type 4 CXC chemokine receptor” (TaiGen Biotechnology Co., Ltd., priority 2014, dated 2016).
